Assay results reported in ChEMBL document CHEMBL1201862, “PubChem BioAssay data set” (2004).
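Protocol summary: plate cells (96-well), add compound at 5 concentrations, incubate 48 h, interpolate endpoints linearly. At the GI50, growth is halved.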 The source made the active and inactive calls. Cut-off read from the data, not from the text of the source: active = GI50 up to about 1.1 µM and inactive = higher.

What was measured:
Assay in all cases: DTP human tumour cell line panel, 48 h
SK-OV-3 = tested on: SK-OV-3
SW-620 = tested on: SW-620
A498 = tested on: A498
BT-549 = tested on: BT-549
Malme-3M = tested on: Malme-3M
OVCAR-5 = tested on: OVCAR-5
OVCAR-4 = tested on: OVCAR-4
PC-3 = tested on: PC-3
HCT-15 = tested on: HCT-15
IGROV-1 = tested on: IGROV-1
HOP-62 = tested on: HOP-62
HT-29 = tested on: HT-29
SK-MEL-5 = tested on: SK-MEL-5
SK-MEL-28 = tested on: SK-MEL-28
SK-MEL-2 = tested on: SK-MEL-2
DU-145 = tested on: DU-145
COLO 205 = tested on: COLO 205
RXF 393 = tested on: RXF 393
NCI-H226 = tested on: NCI-H226
UACC-257 = tested on: UACC-257
SF-295 = tested on: SF-295
HCT-116 = tested on: HCT-116
CCRF-CEM = tested on: CCRF-CEM
KM12 = tested on: KM12
M14 = tested on: M14
786-0 = tested on: 786-0
SN12C = tested on: SN12C
SF-268 = tested on: SF-268
NCI/ADR-RES = tested on: NCI/ADR-RES
MOLT-4 = tested on: MOLT-4
RPMI-8226 = tested on: RPMI-8226
CAKI-1 = tested on: CAKI-1
EKVX = tested on: EKVX
K562 = tested on: K562
OVCAR-3 = tested on: OVCAR-3
A549 = tested on: A549
Hs-578T = tested on: Hs-578T
T47D = tested on: T47D
SNB-75 = tested on: SNB-75
MDA-MB-231 = tested on: MDA-MB-231
U-251 = tested on: U-251
TK-10 = tested on: TK-10
SNB-19 = tested on: SNB-19
NCI-H23 = tested on: NCI-H23
NCI-H460 = tested on: NCI-H460
ACHN = tested on: ACHN
MCF7 = tested on: MCF7
MDA-MB-435 = tested on: MDA-MB-435
UACC-62 = tested on: UACC-62
HOP-92 = tested on: HOP-92
SR = tested on: SR
UO-31 = tested on: UO-31
OVCAR-8 = tested on: OVCAR-8
HCC 2998 = tested on: HCC 2998
SF-539 = tested on: SF-539
HL-60 = tested on: HL-60
LOX IMVI = tested on: LOX IMVI
NCI-H522 = tested on: NCI-H522

Measured: GI50

COc1ccc2[nH]c(C(O)(Cc3cccnc3)Cc3cccnc3)cc2c1
> 100 µM: HCT-15
inactive: SK-OV-3 > 100 µM | SW-620 > 100 µM | A498 > 100 µM | BT-549 > 100 µM | Malme-3M > 100 µM | OVCAR-5 > 100 µM | OVCAR-4 > 100 µM | PC-3 > 100 µM | IGROV-1 > 100 µM | HOP-62 > 100 µM | HT-29 > 100 µM | SK-MEL-5 > 100 µM | SK-MEL-28 > 100 µM | SK-MEL-2 > 100 µM | DU-145 > 100 µM | COLO 205 > 100 µM | RXF 393 > 100 µM | NCI-H226 > 100 µM | UACC-257 > 100 µM | SF-295 > 100 µM | HCT-116 > 100 µM | CCRF-CEM > 100 µM | KM12 > 100 µM | M14 > 100 µM | 786-0 > 100 µM | SN12C > 100 µM | SF-268 > 100 µM | NCI/ADR-RES > 100 µM | MOLT-4 > 100 µM | RPMI-8226 > 100 µM | CAKI-1 > 100 µM | EKVX > 100 µM | K562 > 100 µM | OVCAR-3 > 100 µM | A549 > 100 µM | Hs-578T > 100 µM | T47D > 100 µM | SNB-75 > 100 µM | MDA-MB-231 > 100 µM | U-251 > 100 µM | TK-10 > 100 µM | SNB-19 > 100 µM | NCI-H23 > 100 µM | NCI-H460 > 100 µM | ACHN > 100 µM | MCF7 > 100 µM | MDA-MB-435 > 100 µM | UACC-62 > 100 µM | HOP-92 > 100 µM | SR > 100 µM | UO-31 > 100 µM | OVCAR-8 > 100 µM | HCC 2998 > 100 µM

CCCCNc1nc(NC2OCC(OC(C)=O)C(OC(C)=O)C2OC(C)=O)c(N=O)c(=O)n1C (centres undefined)
> 10 µM: HCT-15
inactive: SK-OV-3 > 10 µM | SW-620 > 10 µM | A498 > 10 µM | SF-539 > 10 µM | BT-549 > 10 µM | Malme-3M > 10 µM | OVCAR-5 > 10 µM | OVCAR-4 > 10 µM | PC-3 > 10 µM | IGROV-1 > 10 µM | HOP-62 > 10 µM | HT-29 > 10 µM | SK-MEL-5 > 10 µM | SK-MEL-28 > 10 µM | SK-MEL-2 > 10 µM | DU-145 > 10 µM | COLO 205 > 10 µM | RXF 393 > 10 µM | NCI-H226 > 10 µM | UACC-257 > 10 µM | SF-295 > 10 µM | HCT-116 > 10 µM | CCRF-CEM > 10 µM | KM12 > 10 µM | M14 > 10 µM | 786-0 > 10 µM | SN12C > 10 µM | SF-268 > 10 µM | NCI/ADR-RES > 10 µM | HL-60 > 10 µM | MOLT-4 > 10 µM | RPMI-8226 > 10 µM | CAKI-1 > 10 µM | LOX IMVI > 10 µM | EKVX > 10 µM | OVCAR-3 > 10 µM | A549 > 10 µM | Hs-578T > 10 µM | T47D > 10 µM | SNB-75 > 10 µM | MDA-MB-231 > 10 µM | U-251 > 10 µM | TK-10 > 10 µM | SNB-19 > 10 µM | NCI-H23 > 10 µM | NCI-H460 > 10 µM | ACHN > 10 µM | MCF7 > 10 µM | MDA-MB-435 > 10 µM | UACC-62 > 10 µM | HOP-92 > 10 µM | SR > 10 µM | NCI-H522 > 10 µM | OVCAR-8 > 10 µM | HCC 2998 > 10 µM

Cc1ccc(NC(Nc2ccc(C)cc2C)=C(C(Cl)=C(Cl)Cl)[N+](=O)[O-])c(C)c1
14.9 µM: HCT-15
inactive: SK-OV-3 20 µM | SW-620 16.8 µM | A498 21.3 µM | SF-539 21.3 µM | BT-549 14.2 µM | Malme-3M 16.9 µM | OVCAR-4 15.7 µM | PC-3 12.4 µM | IGROV-1 14.1 µM | HOP-62 16.9 µM | HT-29 17.5 µM | SK-MEL-5 4.63 µM | SK-MEL-28 19.9 µM | DU-145 14.7 µM | COLO 205 17.5 µM | RXF 393 15.2 µM | NCI-H226 14.6 µM | UACC-257 15.9 µM | HCT-116 13.7 µM | CCRF-CEM 3.35 µM | KM12 15.2 µM | M14 5.36 µM | 786-0 16.1 µM | SN12C 14.7 µM | SF-268 17.3 µM | NCI/ADR-RES 7.21 µM | HL-60 4.12 µM | MOLT-4 10.7 µM | RPMI-8226 19.2 µM | CAKI-1 20.6 µM | LOX IMVI 5.83 µM | EKVX 15.1 µM | K562 9.53 µM | OVCAR-3 15.4 µM | A549 12.6 µM | Hs-578T 22.8 µM | T47D 10.5 µM | SNB-75 9.35 µM | MDA-MB-231 15.5 µM | TK-10 16.9 µM | SNB-19 16.2 µM | NCI-H23 6.22 µM | NCI-H460 13.9 µM | ACHN 15.2 µM | MCF7 38.7 µM | MDA-MB-435 4.89 µM | UACC-62 14.2 µM | HOP-92 12.4 µM | SR 2.9 µM | UO-31 13.7 µM | NCI-H522 11.1 µM | OVCAR-8 16.2 µM | HCC 2998 18 µM
